In patent publication US9249102B2 (priority 2012, dated 2016):
Read-outs that look alike come from different tables or passages of the source.

Legend:
[1] = system: microfilaria of Dirofilaria immitis; experiment: Method F: microfilaria of Dirofilaria immitis, survival at 24 hours
[2] = system: Haemonchus contortus; experiment: Method A: Haemonchus contortus L1 larvae, microtitre plate screen; conditions: 96 h, read-out: motility inhibition
[3] = survival of microfilaria at 24 hours

SMILES | EC50 [1, 3] [µg/mL] | inhibition at 5 µg/mL [2] [%] | EC50 [1] [µg/mL]
O=C(CO[C@H]1CC[C@H](Nc2ccc([N+](=O)[O-])c(C(F)(F)F)c2)CC1)N1CCc2cc(C(F)(F)F)ccc2C1 [Compound 194, 2-[(4-[[4-nitro-3-(trifluoromethyl)phenyl]amino]cyclohexyl)oxy]-1-[6-(trifluoromethyl)-1,2,3,4-tetrahydroisoquinolin-2-yl]ethan-1-one] | < 1 | ≥ 90 | –
N#Cc1ccc(N[C@H]2CC[C@H](OCC(=O)N3CCN(c4ccc5cc(F)ccc5c4)CC3)CC2)cc1C(F)(F)F [Compound 279, 4-(4-{2-[4-(6-fluoro-naphthalen-2-yl)-piperazin-1-yl]-2-oxo-ethoxy}-cyclohexylamino)-2-trifluoromethyl-benzonitrile] | < 5 | ≥ 90 | –
O=C(CO[C@H]1CC[C@H](Nc2ccc([N+](=O)[O-])c(C(F)(F)F)c2)CC1)N1CCN(Cc2oc3ccc(C(F)(F)F)cc3c2Cl)CC1 [Compound 253, 1-(4-[[3-chloro-5-(trifluoromethyl)-1-benzofuran-2-yl]methyl]piperazin-1-yl)-2-[[4-[[4-nitro-3-(trifluoromethyl)phenyl]amino]cyclohexyl]oxy]ethan-1-one] | < 0.1 | ≥ 90 | –
CC(c1cc2cc(C(F)(F)F)ccc2o1)N1CCN(C(=O)CO[C@H]2CC[C@H](N(C)c3ccc([N+](=O)[O-])c(C(F)(F)F)c3)CC2)CC1 (stereo partly shown) [Compound 257, 2-[[4-[methyl[4-nitro-3-(trifluoromethyl)phenyl]amino]cyclohexyl]oxy]-1-(4-[1-[5-(trifluoro-methyl)-1-benzofuran-2-yl]ethyl]piperazin-1-yl)ethan-1-one] | < 5 | ≥ 90 | –
O=C(CO[C@H]1CC[C@H](Nc2ccc([N+](=O)[O-])c(C(F)(F)F)c2)CC1)N1CCN(Cc2cc3cc(F)ccc3o2)CC1 [Compound 179, 1-[4-[(5-fluoro-1-benzofuran-2-yl)methyl]piperazin-1-yl]-2-[(4-[[4-nitro-3-(trifluoromethyl)phenyl]amino]cyclohexyl)oxy]ethan-1-one] | < 1 | ≥ 90 | –
CC(O[C@H]1CC[C@H](Nc2ccc([N+](=O)[O-])c(C(F)(F)F)c2)CC1)C(=O)N1CCN(c2ccc3cc(F)ccc3c2)CC1 (stereo partly shown) [Compound 252, 1-(4-(6-fluoronaphthalen-2-yl)piperazin-1-yl)-2-(−4-(4-nitro-3-(trifluoromethyl)phenylamino)cyclohexyloxy)propan-1-one] | < 1 | ≥ 90 | –
CN(c1ccc([N+](=O)[O-])c(C(F)(F)F)c1)[C@H]1CC[C@H](OCC(=O)N2CCN(c3ccc4cc(F)ccc4n3)CC2)CC1 [Compound 247, 1-(4-(6-fluoroquinolin-2-yl)piperazin-1-yl)-2-(4-(methyl(4-nitro-3-(trifluoromethyl)phenyl)amino)cyclohexyloxy)ethanone] | < 1 | ≥ 90 | –
Cc1cc(N2CCN(C(=O)CO[C@H]3CC[C@H](Nc4ccc([N+](=O)[O-])c(C(F)(F)F)c4)CC3)CC2)nc2ccc(Br)cc12 [Compound 277, 1-[4-(6-bromo-4-methyl-2-quinolyl)piperazin-1-yl]-2-[4-[4-nitro-3-(trifluoromethyl)anilino]cyclohexoxy]ethanone] | < 5 | ≥ 90 | –
CN(c1ccc([N+](=O)[O-])c(C(F)(F)F)c1)[C@H]1CC[C@H](OCC(=O)N2CCN(c3ccc4cc(F)ccc4c3)CC2)CC1 [Compound 248, 1-(4-(6-fluoronaphthalen-2-yl)piperazin-1-yl)-2-(4-(methyl(4-nitro-3-(trifluoromethyl)phenyl)amino)cyclohexyloxy)ethanone] | – | ≥ 90 | < 0.1
O=C(NCCO[C@H]1CC[C@H](Nc2ccc([N+](=O)[O-])c(C(F)(F)F)c2)CC1)C(=O)NCc1cc2ccccc2o1 [Compound 220, N^1-(benzofuran-2-ylmethyl)-N^2-(2-(4-(4-nitro-3-(trifluoromethyl)phenylamino)cyclohexyloxy)ethyl)oxalamide] | < 1 | ≥ 90 | –
N#Cc1ccc(N[C@H]2CC[C@H](OCC(=O)N3CCN(CC4Cc5cc(F)ccc5O4)CC3)CC2)cc1C(F)(F)F (stereo partly shown) [Compound 83] | < 5 | ≥ 90 | –
O=[N+]([O-])c1ccc(N[C@H]2CC[C@H](OCC(=S)N3CCN(c4ccc5cc(F)ccc5c4)CC3)CC2)cc1C(F)(F)F [Compound 263, 1-[4-(6-fluoro-naphthalen-2-yl)-piperazin-1-yl]-2-[4-(4-nitro-3-trifluoromethyl-henylamino)-cyclohexyloxy]-ethanethione] | < 1 | ≥ 90 | –
N#Cc1ccc(NC2CCN(C(=O)CCCN3CCN(c4ccc5cc(F)ccc5c4)CC3)CC2)cc1C(F)(F)F [Compound 18, 4-[(1-[4-[4-(6-fluoronaphthalen-2-yl)piperazin-1-yl]butanoyl]-piperidin-4-yl)amino]-2-(trifluoromethyl)benzonitrile] | < 1 | ≥ 90 | –
N#Cc1ccc(NC2CCN(C(=O)CCCN3CCN(c4ccc5cc(Cl)ccc5n4)CC3)CC2)cc1C(F)(F)F [Compound 96, 4-[(1-[4-[4-(6-chloroquinolin-2-yl)piperazin-1-yl]butanoyl]piperidin-4-yl)amino]-2-(trifluoromethyl)benzonitrile] | < 5 | ≥ 90 | –
O=C(COc1ccc(Nc2ccc([N+](=O)[O-])c(C(F)(F)F)c2)cc1)N1CCN(C(=O)c2cc3cc(Cl)ccc3o2)CC1 [Compound 189, 1-[4-[(5-chloro-1-benzofuran-2-yl)carbonyl]piperazin-1-yl]-2-(4-[[4-nitro-3-(trifluoromethyl)phenyl]amino]phenoxy)ethan-1-one] | < 5 | ≥ 90 | –
O=C(NCCOc1ccc(Nc2ccc([N+](=O)[O-])c(C(F)(F)F)c2)cc1)C(=O)NCC1Cc2cc(Cl)ccc2O1 (stereo not shown) [Compound 226, N^1-((5-chloro-2,3-dihydrobenzofuran-2-yl)methyl)-N^2-(2-(4-(4-nitro-3-(trifluoromethyl)phenylamino)phenoxy)ethyl)oxalamide] | < 1 | ≥ 90 | –
O=C(NCCO[C@H]1CC[C@H](Nc2ccc([N+](=O)[O-])c(C(F)(F)F)c2)CC1)C(=O)NCc1cc2cc(C(F)(F)F)ccc2o1 [Compound 223, N^1-(2-(4-(4-nitro-3-(trifluoromethyl)phenylamino)cyclohexyloxy)ethyl)-N^2-((5-(trifluoromethyl)benzofuran-2-yl)methyl)oxalamide] | – | ≥ 90 | < 0.1
N#Cc1ccc(N[C@H]2CC[C@H](OCC(=O)N3CCN(C(=O)C4Cc5cc(C(F)(F)F)ccc5O4)CC3)CC2)cc1C(F)(F)F (stereo partly shown) [Compound 87, 2-[4-(4-cyano-3-trifluoromethyl-phenylamino)-cyclohexyloxy]-1-[4-(5-trifluoromethyl-2,3-dihydro-benzofuran-2-carbonyl)-piperazin-1-yl]-ethanone] | < 5 | ≥ 90 | –
O=C(CO[C@H]1CC[C@H](Nc2ccc([N+](=O)[O-])c(C(F)(F)F)c2)CC1)N1CCN(c2ccc3cc(C(F)(F)F)ccc3c2)CC1 [Compound 232, 2-[4-(4-nitro-3-trifluoromethyl-phenylamino)-cyclohexyloxy]-1-[4-(6-trifluoromethyl-naphthalen-2-yl)-piperazin-1-yl]-ethanone] | < 5 | ≥ 90 | –
CC(O[C@H]1CC[C@H](Nc2ccc([N+](=O)[O-])c(C(F)(F)F)c2)CC1)C(=O)N1CCN(c2ccc3cc(F)ccc3n2)CC1 (stereo partly shown) [Compound 251, 1-[4-(6-fluoroquinolin-2-yl)piperazin-1-yl]-2-[[4-[[4-nitro-3-(trifluoromethyl)phenyl]amino]cyclohexyl]oxy]propan-1-one] | < 1 | ≥ 90 | –
O=C(CO[C@H]1CC[C@H](Nc2ccc([N+](=O)[O-])c(C(F)(F)F)c2)CC1)N1CCN(c2ccc3ccccc3n2)CC1 [Compound 88, 2-((1R,4R)-4-(4-nitro-3-(trifluoromethyl)phenylamino)cyclohexyloxy)-1-(4-(quinolin-2-yl)piperazin-1-yl)ethanone] | < 5 | ≥ 90 | –
O=C(COc1ccc(Nc2ccc([N+](=O)[O-])c(C(F)(F)F)c2)cc1)N1CCN(Cc2cc3cc(C(F)(F)F)ccc3o2)CC1 [Compound 188, 2-(4-[[4-nitro-3-(trifluoromethyl)phenyl]amino]phenoxy)-1-(4-[[5-(trifluoromethyl)-1-benzofuran-2-yl]methyl]piperazin-1-yl)ethan-1-one] | < 5 | ≥ 90 | –
Cc1cc(N2CCN(CC(C)C(=O)N3CCC(Nc4ccc([N+](=O)[O-])c(C(F)(F)F)c4)CC3)CC2)nc2ccccc12 (stereo not shown) [Compound 101, 2-methyl-3-[4-(4-methylquinolin-2-yl)piperazin-1-yl]-1-(4-[[4-nitro-3-(trifluoromethyl)phenyl]amino]piperidin-1-yl)propan-1-one] | < 1 | – | –
N#Cc1ccc(NC2CCN(C(=O)CCCN3CCN(c4ccc5ccccc5c4)CC3)CC2)cc1C(F)(F)F [Compound 15, 4-[(1-[4-[4-(naphthalen-2-yl)piperazin-1-yl]butanoyl]piperidin-4-yl)amino]-2-(trifluoromethyl)benzonitrile] | < 5 | – | –
Cc1cc(N2CCN(CC(C)C(=O)N3CCC(Nc4ccc([N+](=O)[O-])c(C(F)(F)F)c4)CC3)CC2)nc2ccc(F)cc12 (stereo not shown) [Compound 102, 3-[4-(6-fluoro-4-methylquinolin-2-yl)piperazin-1-yl]-2-methyl-1-(4-[[4-nitro-3-(trifluoromethyl)phenyl]amino]piperidin-1-yl)propan-1-one] | < 1 | – | –
O=C(CO[C@H]1CC[C@H](Nc2ccc([N+](=O)[O-])c(C(F)(F)F)c2)CC1)N1CCc2ccccc2C1 [Compound 192, 2-[[4-[[4-nitro-3-(trifluoromethyl)phenyl]amino]cyclohexyl]oxy]-1-(1,2,3,4-tetrahydroisoquinolin-2-yl)ethan-1-one] | < 1 | – | –
N#Cc1ccc(NC2CCN(C(=O)CCCN3CCN(c4ccc5cc(C(F)(F)F)ccc5n4)CC3)CC2)cc1C(F)(F)F [Compound 95, 2-(trifluoromethyl)-4-[[1-(4-[4-[6-(trifluoromethyl)quinolin-2-yl]piperazin-1-yl]butanoyl)piperidin-4-yl]amino]benzonitrile] | < 5 | – | –
